Where “and” joins values, the source holds several entries; their conditions need not be identical. Equal entries are not always repeated.
Columns and labels:
[1] = Clinical study: inflammation markers, adhesion molecules, adiponectin (hsCRP, IL-6, sICAM, VCAM); assay type: in vivo, human; conditions: Fast, 6 weeks
Protocol: (§1) The following laboratory measurements were carried out on an automated analyzer (Roche Diagnostics, Indianapolis, Ind.) on samples obtained in the fasting state at the randomization visit, and the final visits using frozen aliquots of serum stored at −80 degrees Celsius: 1) total cholesterol; 2) triglycerides; 3) direct high density lipoprotein [“HDL”] cholesterol; 4) direct low density lipoprotein [“LDL”] cholesterol; 5) direct small dense LDL cholesterol; 6) apolipoprotein [“apo”] B; 7) apoA-I; 8) lipoprotein (a); 9) fibrinogen; 10) high sensitivity C reactive protein [“hs-CRP”]; 11) lipoprotein associated phospholipase A2 [“Lp-PLA2”]; and, 12) insulin as previously described. See, McNamara, J. R. and Schaefer, E. J., Clin. Chim. Acta, 166:1-8 (1987); Okada, M. et al., J. Lab. Clin. Med., 132:195-201 (1998); Hirano, T. et al., J. Lipid Res., 44:2193-2201 (2003); Ai, M. et al., Am. J. Cardiol., 101:315-318 (2008); Ingelsson, E. et al., JAMA, 298:776-785 (2007); Jenner, J. L. et al., Circulation, 87:1135-1141 (1993); Schaefer, E. J. et al., Am. J. Cardiol., 95:1025-1032 (2005); McNamara, J. R. et al., Atherosclerosis, 154:229-236 (2001).
Plasma apoB-48 was measured with an enzyme linked immunosorbent assay obtained from the Shibayagi Company (Gunma, Japan) (Kinoshita, M. et al., Clin. Chim. Acta, 351:115-120 (2005); Otokozawa, S. et al., Atherosclerosis, 205:197-201 (2009); Otokozawa, S. et al., Metabolism, 58(11): 1536-1542 (2009)). ICAM1 and VCAM1, interleukin-6 or IL-6, and adiponectin were all measured using commercially available enzyme linked immunoassays [“ELISA”] obtained from the R & D Corporation (Minneapolis, Minn.). All these assays have within and between run coefficients of variation of less than 10%.

[2] = Clinical study: fasting serum lipids, lipoproteins and apolipoproteins (automated analyzer); assay type: in vivo, human; conditions: 6 weeks; for HDL C, 6-Week Change (%) / HDL C, Final / LDL C, Final / Lp(a), 6-Week Change (%) / Lp(a), Final / Total Cholesterol, 6-Week Change (%) / Total Cholesterol, Final / Triglyceride, 6-Week Change (%) / Triglyceride, Final / apoA-I, 6-Week Change (%) / apoA-I, Final / apoB, 6-Week Change (%) / apoB, Final / sdLDL, 6-Week Change (%) / sdLDL, Final / LDL C, 6-Week Change (%): Fast
Protocol: At visit 2, subjects were again asked to fast for 12 hours, and information about subject characteristics including all vital signs, recent illness or hospitalization, medication and supplement use, and diet information was again obtained. Subjects then had blood drawn for a metabolic profile and complete blood counts. […] Subjects (30 in each group) were then randomized equally for 6 weeks to one of four treatment arms: 1) olive oil placebo; 2) 600 mg of EPA/day; 3) 1800 mg of EPA/day; and, 4) 600 mg of DHA/day. At one week and three weeks after beginning the supplements, all study subjects were contacted by telephone and asked about any adverse effects and about their compliance, and the information on their calendars with regard to capsule use and fish intake. They were also asked about whether they had experienced any fishy aftertaste or odor, and if so, how frequent were these episodes, and how unpleasant were they? The entire process as listed above was repeated after study subjects were on the study capsules for 6 weeks at the time of the final visit. Compliance and adverse events were assessed by telephone at weeks 1 and 3 by telephone and at week 6 by questionnaire and capsule count. Over 42 days, subjects were expected to have consumed a total of 252 capsules. Compliance was calculated as a percentage of consumed capsule count/expected capsule count based on the number of days the subject was in the study. All subjects were asked to stay on their capsules until they come in for their final visit. Compliance in all participants who completed the study was based on capsule count was in excess of 85%, mean 96%.
as §1
On the samples obtained 4 hours after the fat-rich meal, total cholesterol, triglycerides, direct HDL cholesterol, and direct LDL cholesterol were measured. Direct LDL cholesterol and small dense LDL cholesterol levels were measured using kits obtained from Denka-Seiken Corporation, (Tokyo, Japan), as previously described (Okada, M. et al., supra; Hirano, T. et al., supra; Ai, M. et al., supra). Remnant lipoprotein cholesterol was measured using kits obtained from Polymedco (Cortland Manor, N.Y.) and manufactured by Otsuka Corporation (Tokyo, Japan) as previously described (McNamara, J. R. et al., Atherosclerosis, supra). All lipid assays are standardized through the Lipid Research Clinics standardization program of the Centers for Disease Control (Atlanta, Ga.). All assays had between and within run coefficients of variation of <5%. Serum fatty acid profiles were analyzed by Nutrasource Diagnostics (Guelph, Ontario, Canada).

## CCC=CCC=CCC=CCC=CCC=CC/C=C\CCC(=O)O [DHA, cis-4,7, 10, 13, 16, 19-docosahexaenoic acid, reference compound]
[1]; DHA 600 mg (n = 28)
  Adiponectin, 6-Week Change (%): −6.7 ± 19.8%
  Adiponectin, Final: 11380.0 ± 14772.6 ng/mL
  IL-6, 6-Week Change (%): +5.7 ± 50.3%
  IL-6, Final: 1.6 ± 0.9 pg/mL
  VCAM, 6-Week Change (%): +0.2 ± 11.0%
  VCAM, Final: 673.0 ± 197.4 ng/mL
  hsCRP, 6-Week Change (%): +27.1 ± 82.3%
  hsCRP, Final: 3.4 ± 4.5 mg/L
  sICAM, 6-Week Change (%): +0.7 ± 18.0%
  sICAM, Final: 240.2 ± 114.1 ng/mL
[2]; DHA 600 mg (n = 28)
  HDL C, 6-Week Change (%): +1.3 ± 14.7%
  HDL C, Final: 62.0 ± 23.7 mg/dL
  LDL C, Final: 130.3 ± 37.2 mg/dL
  Lp(a), 6-Week Change (%): +27.7 ± 156.3%
  Lp(a), Final: 40.0 ± 40.1 mg/dL
  Total Cholesterol, 6-Week Change (%): +2.9 ± 12.0%
  Total Cholesterol, Final: 216.1 ± 44.1 mg/dL
  Triglyceride, 6-Week Change (%): −5.8 ± 30.4%
  Triglyceride, Final: 104.4 ± 58.0 mg/dL
  apoA-I, 6-Week Change (%): −2.0 ± 10.5%
  apoA-I, Final: 177.5 ± 43.0 mg/dL
  apoB, 6-Week Change (%): +6.0 ± 15.6%
  apoB, Final: 97.1 ± 25.7 mg/dL
  sdLDL, 6-Week Change (%): −2.2 ± 24.7%
  sdLDL, Final: 31.1 ± 13.3 mg/dL

## CCC=CCC=CCC=CCC=CC/C=C\CCCC(=O)O [EPA, cis-5,8, 11, 14, 17-eicosapentaenoic acid]
[1]; EPA 600 mg (n = 27)
  Adiponectin, 6-Week Change (%): 11.3 ± 31.4%
  Adiponectin, Final: 9501.4 ± 5894.3 ng/mL
  IL-6, 6-Week Change (%): +35.3 ± 126.1%
  IL-6, Final: 2.0 ± 1.8 pg/mL
  VCAM, 6-Week Change (%): +2.2 ± 12.6%
  VCAM, Final: 722.8 ± 178.0 ng/mL
  hsCRP, 6-Week Change (%): +115.6 ± 508.4%
  hsCRP, Final: 3.3 ± 4.9 mg/L
  sICAM, 6-Week Change (%): +3.2 ± 19.0%
  sICAM, Final: 232.4 ± 62.7 ng/mL
[1]; EPA 1800 mg (n = 29)
  Adiponectin, 6-Week Change (%): 16.4 ± 82.6%
  Adiponectin, Final: 17578.6 ± 45606.9 ng/mL
  IL-6, 6-Week Change (%): +3.1 ± 50.1%
  IL-6, Final: 1.3 ± 0.7 pg/mL
  VCAM, 6-Week Change (%): +1.0 ± 13.5%
  VCAM, Final: 607.5 ± 125.7 ng/mL
  hsCRP, 6-Week Change (%): +26.0 ± 113.0%
  hsCRP, Final: 2.7 ± 4.7 mg/L
  sICAM, 6-Week Change (%): −2.6 ± 17.1%
  sICAM, Final: 206.9 ± 50.5 ng/mL
[2]; FIG. 5
  LDL cholesterol levels: did not increase
[2]; EPA 600 mg (n = 27)
  HDL C, 6-Week Change (%): +0.4 ± 13.7%
  HDL C, Final: 57.9 ± 18.0 mg/dL
  LDL C, 6-Week Change (%): −2.5 ± 11.7%
  LDL C, Final: 118.1 ± 35.8 mg/dL
  Lp(a), 6-Week Change (%): +18.3 ± 84.8%
  Lp(a), Final: 32.8 ± 32.4 mg/dL
  Total Cholesterol, 6-Week Change (%): −1.8 ± 9.5%
  Total Cholesterol, Final: 199.2 ± 48.7 mg/dL
  Triglyceride, 6-Week Change (%): −1.3 ± 31.6%
  Triglyceride, Final: 107.0 ± 43.2 mg/dL
  apoA-I, 6-Week Change (%): −1.3 ± 12.4%
  apoA-I, Final: 173.6 ± 36.3 mg/dL
  apoB, 6-Week Change (%): −2.3 ± 10.9%
  apoB, Final: 90.1 ± 22.8 mg/dL
  sdLDL, 6-Week Change (%): −7.3 ± 18.2%
  sdLDL, Final: 29.5 ± 12.0 mg/dL
[2]; EPA 600 mg/day, p=0.0087
  decrease versus baseline in small dense LDL cholesterol: 7.3%
[2]; EPA 1800 mg (n = 29)
  HDL C, 6-Week Change (%): +2.5 ± 12.7%
  HDL C, Final: 59.9 ± 15.7 mg/dL
  LDL C, 6-Week Change (%): −2.0 ± 13.7%
  LDL C, Final: 120.6 ± 26.8 mg/dL
  Lp(a), 6-Week Change (%): +5.1 ± 26.1%
  Lp(a), Final: 32.2 ± 23.6 mg/dL
  Total Cholesterol, 6-Week Change (%): −1.7 ± 11.2%
  Total Cholesterol, Final: 201.1 ± 35.3 mg/dL
  Triglyceride, 6-Week Change (%): −5.0% and −5.0 ± 28.6%
  Triglyceride, Final: 102.8 ± 82.8 mg/dL
  apoA-I, 6-Week Change (%): +0.4 ± 10.8%
  apoA-I, Final: 173.1 ± 31.3 mg/dL
  apoB, 6-Week Change (%): −1.6 ± 12.2%
  apoB, Final: 91.7 ± 19.1 mg/dL
  sdLDL, 6-Week Change (%): −8.8 ± 19.5%
  sdLDL, Final: 30.6 ± 9.4 mg/dL
[2]; EPA 1800 mg/day, p=0.018
  decrease versus baseline in small dense LDL cholesterol: 8.8%

From patent publication US20110178105A1, “CLINICAL BENEFITS OF EICOSAPENTAENOIC ACID IN HUMANS” (E.I. DU PONT DE NEMOURS AND COMPANY, priority 2010, published 2011)
